Source: ChEMBL document CHEMBL1201862, “PubChem BioAssay data set” (2004)
The source made the active and inactive calls.

Key:
[1] = target: T1, G-protein coupled receptor 35 (Homo sapiens, UniProt Q9HC97); assay: SAR analysis of Agonists of the GPR35 Receptor using an Image-Based Assay - Set 4. [Related pubchem assays (depositor defined):AID2013, AID2026]; type: functional
[2] = target: T2, Cannabinoid receptor 1 (Homo sapiens, UniProt P21554); assay: SAR analysis of agonists of the Cannabinoid Receptor 1 using an Image-Based Assay - Set 4. [Related pubchem assays (depositor defined):AID2013, AID2026]; type: functional
[3] = target: T2, Cannabinoid receptor 1; assay: SAR analysis of antagonists of the Cannabinoid Receptor 1 using an Image-Based Assay - Set 4. [Related pubchem assays (depositor defined):AID2013, AID2026]; type: functional
[4] = target: G-protein coupled receptor 55 (Homo sapiens, UniProt Q9Y2T6); assay: SAR Analysis of Selective Antagonists of GPR55 using an Image-Based Assay - Set 4. [Related pubchem assays (depositor defined):AID2013, AID2026]; type: functional;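 further: antagonism of response to 5 µM lysophosphatidylinositol agonist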
[5] = target: T1, G-protein coupled receptor 35; assay: SAR analysis of Antagonists of the GPR35 Receptor using an Image-Based Assay - Set 6. [Related pubchem assays (depositor defined):AID2013, AID2026]; type: functional
[6] = target: T3, Cannabinoid receptor 2 (Homo sapiens, UniProt P34972); assay: SAR analysis of agonists of the Cannabinoid Receptor 2 using an Image-Based Assay - Set 3. [Related pubchem assays (depositor defined):AID2013, AID2026]; type: functional
[7] = target: T3, Cannabinoid receptor 2; assay: SAR analysis of antagonists of the Cannabinoid Receptor 2 using an Image-Based Assay - Set 3. [Related pubchem assays (depositor defined):AID2013, AID2026]; type: functional
[8] = target: Exodeoxyribonuclease V (Escherichia coli (strain K12), UniProt P04993+P07648+P08394); assay: E. coli RecBCD inhibitors, dose response, counter-screen for AddAB inhibitor project, absorbance, V66 E. coli, mutant T4 phage (AID 492957); type: functional, cell-based, Escherichia coli str. K-12 substr. MG1655
[9] = target: Paired box protein Pax-8 (Homo sapiens, UniProt Q06710); assay: inhibitors of PAX8-driven TPO luciferase reporter, dose response, RMG-I cells, cherry-pick (AID 687027); type: functional, cell-based;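 further: luciferase reporter driven by Pax8 target thyroperoxidase promoter measured by SteadyGlo luminescence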
[10] = Counterscreen for AddAB inhibitors: absorbance-based bacterial cell-based high throughput dose response assay for inhibitors of bacterial viability. [Related pubchem assays (depositor defined):AID435030, AID449728, AID449731, AID488942, AID488955, AID488956]; type: functional
[11] = target: T4, Orexin/Hypocretin receptor type 1 (Homo sapiens, UniProt O43613); assay: (§1) Fluorescence-based cell-based high throughput dose response assay for antagonists of the orexin 1 receptor (OX1R; HCRTR1). [Related pubchem assays (depositor defined):AID434989, AID435008, AID463079, AID485270, AID492963, AID492964, AID492965, AID493232, AID504717, AID504718]; type: functional
[12] = (§2) Counterscreen for antagonists of the orexin 1 receptor (OX1R; HCRTR1): Fluorescence-based cell-based high throughput dose response assay to identify antagonists of the parental CHO cell line. [Related pubchem assays (depositor defined):AID434989, AID435008, AID463079, AID485270, AID492963, AID492964, AID492965, AID493232, AID504699, AID504701]; type: functional
[13] = test system: CHO-K1; assay: as §2, with “Homogeneous time resolved fluorescence (HTRF)-based” for “Fluorescence-based”, “cell-based” for “cell-based high throughput”, “CHO-K1” for “CHO”; type: functional; settings: Cricetulus griseus;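 further: potency for inhibition of ATP-stimulated IP1 production as antagonists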
[14] = target: T4, Orexin/Hypocretin receptor type 1; assay: as §1, with “Homogeneous Time Resolved Fluorescence (HTRF)-based” for “Fluorescence-based”; type: functional
[15] = HEp-2 cell cytotoxicity, dose response, cytotoxicity control for RSV inhibitor project, HTS (AID 2410); type: functional; settings: human respiratory syncytial virus
[16] = target: T5, Zinc finger protein mex-5 (Caenorhabditis elegans, UniProt Q9XUB2); assay: MEX-5/TCR-2 RNA interaction inhibitors, dose response, biochemical, C. elegans, fluorescence polarization (AID 1960)
T5 sequence (Q9XUB2 whole entry): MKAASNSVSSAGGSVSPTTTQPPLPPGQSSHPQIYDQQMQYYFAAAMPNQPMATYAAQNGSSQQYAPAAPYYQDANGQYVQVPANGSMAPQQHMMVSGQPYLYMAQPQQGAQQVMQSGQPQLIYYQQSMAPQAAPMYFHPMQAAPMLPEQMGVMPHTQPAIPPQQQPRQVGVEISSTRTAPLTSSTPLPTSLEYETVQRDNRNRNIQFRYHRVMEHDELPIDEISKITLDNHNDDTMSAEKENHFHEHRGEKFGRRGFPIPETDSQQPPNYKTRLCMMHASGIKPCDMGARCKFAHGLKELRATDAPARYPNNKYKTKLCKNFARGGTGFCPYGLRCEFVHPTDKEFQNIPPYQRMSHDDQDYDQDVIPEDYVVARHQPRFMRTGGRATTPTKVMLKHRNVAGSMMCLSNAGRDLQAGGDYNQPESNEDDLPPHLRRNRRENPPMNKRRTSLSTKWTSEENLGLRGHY

[17] = target: T6, RNA-binding protein pos-1 (Caenorhabditis elegans, UniProt G5EF15); assay: inhibitors of POS-1/mex-3 RNA binding, dose response, biochemical, fluorescence polarization (AID 1964);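 further: purified POS-1 fused to maltose binding protein made in E. coli; potency of compounds blocking POS-1 binding to fluorescent RNA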
T6 sequence (G5EF15 whole entry): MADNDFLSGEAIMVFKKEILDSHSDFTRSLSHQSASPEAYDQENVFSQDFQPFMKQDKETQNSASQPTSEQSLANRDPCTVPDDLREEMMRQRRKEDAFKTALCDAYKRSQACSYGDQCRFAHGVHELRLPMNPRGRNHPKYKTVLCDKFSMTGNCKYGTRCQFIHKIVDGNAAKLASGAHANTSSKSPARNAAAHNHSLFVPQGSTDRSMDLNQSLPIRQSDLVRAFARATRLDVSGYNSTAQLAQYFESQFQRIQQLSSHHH

[18] = target: T7, SUMO-activating enzyme (Homo sapiens, UniProt Q9UBT2); assay: inhibitors of in vitro SUMOylation cascade, primary screen, biochemical, HTRF, uHTS (AID 2006); type: protein-complex assay
[19] = target: T7, SUMO-activating enzyme; assay: SUMOylation inhibitor hit validation, confirmation, SUMOylation inhibitor project, biochemical, AlphaScreen (AID 2018); type: functional

T3 sequence (P34972 whole entry): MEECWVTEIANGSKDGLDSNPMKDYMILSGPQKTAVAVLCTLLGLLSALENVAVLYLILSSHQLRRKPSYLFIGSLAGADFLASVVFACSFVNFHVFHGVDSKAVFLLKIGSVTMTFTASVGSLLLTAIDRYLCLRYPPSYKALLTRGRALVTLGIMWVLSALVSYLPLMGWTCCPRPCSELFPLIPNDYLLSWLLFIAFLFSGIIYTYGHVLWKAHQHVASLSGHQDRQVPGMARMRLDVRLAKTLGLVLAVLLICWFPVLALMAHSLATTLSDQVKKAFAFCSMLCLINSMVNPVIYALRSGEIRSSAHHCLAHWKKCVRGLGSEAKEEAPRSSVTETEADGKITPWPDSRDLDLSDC
T7 sequence (Q9UBE0 whole entry): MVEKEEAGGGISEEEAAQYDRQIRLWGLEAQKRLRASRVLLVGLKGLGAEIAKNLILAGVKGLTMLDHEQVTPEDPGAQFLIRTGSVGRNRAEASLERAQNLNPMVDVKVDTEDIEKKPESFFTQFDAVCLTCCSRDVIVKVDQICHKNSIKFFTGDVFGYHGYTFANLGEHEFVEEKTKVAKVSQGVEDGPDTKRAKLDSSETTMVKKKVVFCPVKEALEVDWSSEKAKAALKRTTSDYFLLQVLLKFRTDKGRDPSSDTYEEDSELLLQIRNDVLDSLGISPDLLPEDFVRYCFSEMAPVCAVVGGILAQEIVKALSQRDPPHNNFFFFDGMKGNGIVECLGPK
T7 sequence (Q9UBT2 whole entry): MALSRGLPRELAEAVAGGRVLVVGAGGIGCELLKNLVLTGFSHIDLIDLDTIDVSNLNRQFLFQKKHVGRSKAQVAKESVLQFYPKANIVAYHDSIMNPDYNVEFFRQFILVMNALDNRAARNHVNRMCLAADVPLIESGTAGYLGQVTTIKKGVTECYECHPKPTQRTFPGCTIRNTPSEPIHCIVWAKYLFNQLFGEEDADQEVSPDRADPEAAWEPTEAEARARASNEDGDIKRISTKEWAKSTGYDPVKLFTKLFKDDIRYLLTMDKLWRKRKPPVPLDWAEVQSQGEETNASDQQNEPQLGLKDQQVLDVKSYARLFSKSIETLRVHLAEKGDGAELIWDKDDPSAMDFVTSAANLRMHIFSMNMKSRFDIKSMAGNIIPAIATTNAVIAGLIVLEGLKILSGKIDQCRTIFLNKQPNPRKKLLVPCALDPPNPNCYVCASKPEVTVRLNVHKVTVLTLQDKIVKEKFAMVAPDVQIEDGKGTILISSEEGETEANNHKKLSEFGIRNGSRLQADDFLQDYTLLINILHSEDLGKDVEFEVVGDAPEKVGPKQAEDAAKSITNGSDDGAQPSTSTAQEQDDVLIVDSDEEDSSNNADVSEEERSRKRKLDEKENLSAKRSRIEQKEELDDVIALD
T1 sequence (Q9HC97 whole entry): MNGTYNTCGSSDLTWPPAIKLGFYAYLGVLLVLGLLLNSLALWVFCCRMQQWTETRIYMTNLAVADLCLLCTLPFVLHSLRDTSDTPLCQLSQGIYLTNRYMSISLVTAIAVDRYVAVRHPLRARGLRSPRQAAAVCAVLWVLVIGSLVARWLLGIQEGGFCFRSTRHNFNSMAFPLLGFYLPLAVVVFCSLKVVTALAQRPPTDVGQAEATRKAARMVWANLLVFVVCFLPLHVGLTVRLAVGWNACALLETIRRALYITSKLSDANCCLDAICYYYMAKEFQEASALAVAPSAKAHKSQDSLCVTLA
T4 sequence (O43613 whole entry): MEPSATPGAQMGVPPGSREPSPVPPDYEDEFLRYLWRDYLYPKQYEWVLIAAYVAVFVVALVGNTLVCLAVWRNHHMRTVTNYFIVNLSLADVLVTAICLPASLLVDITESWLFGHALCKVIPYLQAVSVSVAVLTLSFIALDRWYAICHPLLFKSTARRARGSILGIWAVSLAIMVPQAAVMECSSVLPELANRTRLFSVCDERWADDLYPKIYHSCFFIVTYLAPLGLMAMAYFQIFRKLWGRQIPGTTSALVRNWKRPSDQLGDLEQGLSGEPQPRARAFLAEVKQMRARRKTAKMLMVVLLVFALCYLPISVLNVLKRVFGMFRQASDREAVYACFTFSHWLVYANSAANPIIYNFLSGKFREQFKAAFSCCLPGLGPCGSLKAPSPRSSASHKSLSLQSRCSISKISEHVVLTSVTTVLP
T2 sequence (P21554 whole entry): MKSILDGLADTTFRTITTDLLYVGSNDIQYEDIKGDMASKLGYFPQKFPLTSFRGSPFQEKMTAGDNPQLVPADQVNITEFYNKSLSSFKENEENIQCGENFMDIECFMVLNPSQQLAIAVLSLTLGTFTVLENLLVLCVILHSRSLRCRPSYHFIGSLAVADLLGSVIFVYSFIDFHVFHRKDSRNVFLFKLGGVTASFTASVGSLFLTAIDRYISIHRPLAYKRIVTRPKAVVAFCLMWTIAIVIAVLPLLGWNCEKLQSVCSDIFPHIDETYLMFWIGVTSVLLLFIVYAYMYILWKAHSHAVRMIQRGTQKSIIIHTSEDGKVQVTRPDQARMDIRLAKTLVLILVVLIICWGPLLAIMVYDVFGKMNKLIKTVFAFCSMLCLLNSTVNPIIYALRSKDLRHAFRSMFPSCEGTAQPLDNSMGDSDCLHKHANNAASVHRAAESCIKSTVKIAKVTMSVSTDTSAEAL
Chain of Paired box protein Pax-8 (Q06710 whole entry): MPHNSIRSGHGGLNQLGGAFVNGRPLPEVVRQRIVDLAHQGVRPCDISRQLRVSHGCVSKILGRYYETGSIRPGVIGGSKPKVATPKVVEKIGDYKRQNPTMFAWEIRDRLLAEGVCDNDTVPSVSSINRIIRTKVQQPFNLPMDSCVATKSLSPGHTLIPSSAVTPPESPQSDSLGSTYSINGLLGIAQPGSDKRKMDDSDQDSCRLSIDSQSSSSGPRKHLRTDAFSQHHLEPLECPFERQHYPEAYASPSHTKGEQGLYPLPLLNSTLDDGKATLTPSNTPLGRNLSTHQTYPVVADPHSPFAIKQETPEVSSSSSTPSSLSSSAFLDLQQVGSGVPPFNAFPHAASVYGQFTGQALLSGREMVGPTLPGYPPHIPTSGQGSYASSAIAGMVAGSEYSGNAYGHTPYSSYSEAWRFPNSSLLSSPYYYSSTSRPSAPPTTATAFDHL
Chain of G-protein coupled receptor 55 (Q9Y2T6 whole entry): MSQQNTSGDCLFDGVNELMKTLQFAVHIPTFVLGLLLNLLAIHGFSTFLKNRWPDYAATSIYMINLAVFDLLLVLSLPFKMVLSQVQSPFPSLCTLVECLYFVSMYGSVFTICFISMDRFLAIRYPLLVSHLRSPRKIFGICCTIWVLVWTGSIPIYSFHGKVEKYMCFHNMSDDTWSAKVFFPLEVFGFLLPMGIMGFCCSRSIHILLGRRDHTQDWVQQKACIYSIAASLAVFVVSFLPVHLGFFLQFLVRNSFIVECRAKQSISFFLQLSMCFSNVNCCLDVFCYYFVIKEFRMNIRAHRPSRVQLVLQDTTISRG

Cc1[nH]nc(-c2ccc(OCCN3CCOCC3)cc2O)c1-c1ccc(Cl)cc1
EC50 [1]: > 32 µM (inactive)
EC50 [2]: > 32 µM (inactive)
IC50 [3]: 2.11 µM (active)
IC50 [4]: 19.2 µM (inactive)
IC50 [5]: > 32 µM (inactive)
EC50 [6]: > 32 µM (inactive)
IC50 [7]: 29.1 µM (inactive)

COc1cc(NC(=O)c2ccc([N+](=O)[O-])o2)ccc1NC(=O)c1ccco1
IC50 [8]: > 119 µM (inactive)
AC50 [9]: 3.75 µM (active)
IC50 [10]: > 119 µM (inactive)

Cc1cc(C)nc(N=C(N)Nc2ccc(SC(F)F)cc2)n1
IC50 [11]: 14.7 µM (inactive)
IC50 [12]: 22.1 µM (inactive)
IC50 [13]: > 66.2 µM (inactive)
IC50 [14]: 57 µM (inactive)
CC50 [15]: 16.1 µM (active)

CC(=O)c1ccc(-c2ccc(/C=C(/Sc3n[nH]c(C)n3)C(=O)O)o2)cc1
EC50 [16]: 14.9 µM (active)
EC50 [17]: 21.6 µM (active)
IC50 [18]: 74.2 µM (active)
IC50 [19]: 4.2 µM (active)
